Assay results: ChEMBL document CHEMBL5465560, “Selectivity Literature for EUbOPEN Chemogenomic Library” (2024)
Blank lines part the entries; values can stand above or below the compound they belong to.

Experiments:
[1] = target: T1, Serine/threonine-protein kinase DCLK3 (Homo sapiens) (UniProt Q9C098); experiment: Selectivity interaction (Ambit KINOMEscan and KiNATiv profiling in Jurkat cells) EUB0000090b DCLK3; type: cell-based; settings: at 1 µM
T1 sequence (whole entry): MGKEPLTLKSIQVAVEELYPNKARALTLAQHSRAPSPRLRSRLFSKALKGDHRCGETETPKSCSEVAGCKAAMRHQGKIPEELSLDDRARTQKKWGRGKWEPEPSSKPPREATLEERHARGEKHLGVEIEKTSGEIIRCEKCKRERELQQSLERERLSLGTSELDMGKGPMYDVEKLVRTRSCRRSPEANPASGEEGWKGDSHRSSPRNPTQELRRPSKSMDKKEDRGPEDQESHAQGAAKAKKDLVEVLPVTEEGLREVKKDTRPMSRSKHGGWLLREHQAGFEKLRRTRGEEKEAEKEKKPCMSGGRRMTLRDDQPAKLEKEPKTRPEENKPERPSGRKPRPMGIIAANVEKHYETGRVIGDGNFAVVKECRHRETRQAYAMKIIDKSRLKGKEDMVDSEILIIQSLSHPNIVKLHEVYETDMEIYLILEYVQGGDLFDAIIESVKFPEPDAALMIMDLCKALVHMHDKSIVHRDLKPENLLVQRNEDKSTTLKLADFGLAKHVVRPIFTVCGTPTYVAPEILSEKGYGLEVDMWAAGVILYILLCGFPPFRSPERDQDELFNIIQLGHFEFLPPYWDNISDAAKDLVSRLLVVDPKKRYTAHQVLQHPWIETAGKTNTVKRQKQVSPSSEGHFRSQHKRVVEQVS

Insulin receptor = Insulin receptor (Homo sapiens, UniProt P06213); experiment: Selectivity interaction (KinomeScan (DiscoverX)) EUB0000618a INSR; settings: at 10 µM
[2] = target: T2, Ephrin type-A receptor 6 (Homo sapiens) (UniProt Q9UF33); experiment: Selectivity interaction (KinomeScan (DiscoverX)) EUB0001619a EPHA6; settings: at 1 µM
T2 sequence (whole entry): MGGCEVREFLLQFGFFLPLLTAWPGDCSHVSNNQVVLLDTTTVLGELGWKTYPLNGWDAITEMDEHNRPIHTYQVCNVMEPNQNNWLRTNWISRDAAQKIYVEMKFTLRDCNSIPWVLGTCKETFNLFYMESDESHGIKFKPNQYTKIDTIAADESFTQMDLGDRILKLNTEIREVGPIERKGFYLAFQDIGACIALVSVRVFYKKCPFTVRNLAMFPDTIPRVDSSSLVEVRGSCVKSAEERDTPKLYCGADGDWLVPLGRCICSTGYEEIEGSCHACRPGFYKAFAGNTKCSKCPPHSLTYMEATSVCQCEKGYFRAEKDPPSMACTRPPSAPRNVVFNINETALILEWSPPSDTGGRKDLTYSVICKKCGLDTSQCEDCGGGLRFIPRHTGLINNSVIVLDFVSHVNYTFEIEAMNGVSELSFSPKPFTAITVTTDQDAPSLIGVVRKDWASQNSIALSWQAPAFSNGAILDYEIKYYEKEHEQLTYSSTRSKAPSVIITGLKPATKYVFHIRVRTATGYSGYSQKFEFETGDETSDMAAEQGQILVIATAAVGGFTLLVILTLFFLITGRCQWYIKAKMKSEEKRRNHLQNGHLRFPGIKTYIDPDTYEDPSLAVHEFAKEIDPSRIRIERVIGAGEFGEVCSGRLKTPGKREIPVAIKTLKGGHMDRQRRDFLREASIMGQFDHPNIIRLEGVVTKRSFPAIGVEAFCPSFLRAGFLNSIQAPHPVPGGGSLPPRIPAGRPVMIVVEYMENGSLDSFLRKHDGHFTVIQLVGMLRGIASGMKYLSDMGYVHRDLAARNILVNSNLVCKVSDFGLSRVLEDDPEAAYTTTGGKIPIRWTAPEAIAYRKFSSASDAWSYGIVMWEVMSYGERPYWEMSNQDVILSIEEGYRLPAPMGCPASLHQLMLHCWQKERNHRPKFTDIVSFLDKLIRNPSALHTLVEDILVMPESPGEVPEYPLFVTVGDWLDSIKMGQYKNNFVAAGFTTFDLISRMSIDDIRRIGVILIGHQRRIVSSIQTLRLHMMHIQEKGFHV

[3] = target: Cyclin-dependent kinase 9 (Homo sapiens, UniProt P50750); experiment: Selectivity interaction (Z-Lyte kinase biochemical assay, conc. ATP = Km(app), Thermo Fisher Scientific) EUB0001558a CDK9
[4] = target: Phosphatidylinositol 4-phosphate 5-kinase type-1 gamma (Homo sapiens) (UniProt O60331); experiment: Selectivity interaction (KinomeScan (DiscoverX)) EUB0000045b PIP5K1C
[5] = target: Homeodomain-interacting protein kinase 2 (Homo sapiens, UniProt Q9H2X6); experiment: Selectivity interaction (KinomeScan (DiscoverX)) EUB0000045b HIPK2
[6] = target: T3, Cytoplasmic tyrosine-protein kinase BMX (Homo sapiens) (UniProt P51813); experiment: Selectivity interaction (Upstate Kinase Profiler service (Millipore)) EUB0000056c BMX; settings: at 1 µM
T3 sequence (whole entry): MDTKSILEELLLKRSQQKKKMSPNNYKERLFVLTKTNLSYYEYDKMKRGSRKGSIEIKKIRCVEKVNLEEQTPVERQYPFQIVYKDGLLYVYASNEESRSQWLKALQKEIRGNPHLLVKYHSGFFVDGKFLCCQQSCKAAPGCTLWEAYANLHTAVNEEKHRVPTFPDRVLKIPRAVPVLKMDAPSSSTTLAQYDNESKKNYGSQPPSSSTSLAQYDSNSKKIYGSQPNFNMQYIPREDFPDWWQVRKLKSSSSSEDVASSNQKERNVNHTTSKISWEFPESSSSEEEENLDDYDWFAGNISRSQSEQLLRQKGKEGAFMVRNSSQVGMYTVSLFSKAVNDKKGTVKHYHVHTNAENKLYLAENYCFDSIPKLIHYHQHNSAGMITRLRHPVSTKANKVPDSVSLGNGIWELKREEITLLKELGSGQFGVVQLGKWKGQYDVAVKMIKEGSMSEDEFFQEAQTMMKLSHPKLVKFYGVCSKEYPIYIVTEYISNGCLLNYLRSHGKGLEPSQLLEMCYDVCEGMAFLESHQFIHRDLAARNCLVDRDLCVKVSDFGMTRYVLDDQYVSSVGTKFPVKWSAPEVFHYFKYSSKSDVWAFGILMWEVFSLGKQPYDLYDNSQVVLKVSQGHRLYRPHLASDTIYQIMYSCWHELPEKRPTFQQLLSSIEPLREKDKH

[7] = test system: Tyrosine-protein kinase ABL1 (Homo sapiens), P00519 [H396P]; settings: at 10 µM
[8] = target: Mitogen-activated protein kinase 14 (Homo sapiens, UniProt Q16539); experiment: Selectivity interaction (ActivX KiNativ screen (kinase selectivity in THP-1 cell lysates)) EUB0000639a MAPK14; type: subcellular; settings: lysate, at 0.2 µM
Mu-type opioid receptor = Mu-type opioid receptor (Homo sapiens, UniProt P35372); experiment: Selectivity interaction (Panel of kinases, GPCRs, ion channels and transporters (enzymatic assay)) EUB0000266bCl OPRM1
Mu-type opioid receptor, sequence (P35372 whole entry): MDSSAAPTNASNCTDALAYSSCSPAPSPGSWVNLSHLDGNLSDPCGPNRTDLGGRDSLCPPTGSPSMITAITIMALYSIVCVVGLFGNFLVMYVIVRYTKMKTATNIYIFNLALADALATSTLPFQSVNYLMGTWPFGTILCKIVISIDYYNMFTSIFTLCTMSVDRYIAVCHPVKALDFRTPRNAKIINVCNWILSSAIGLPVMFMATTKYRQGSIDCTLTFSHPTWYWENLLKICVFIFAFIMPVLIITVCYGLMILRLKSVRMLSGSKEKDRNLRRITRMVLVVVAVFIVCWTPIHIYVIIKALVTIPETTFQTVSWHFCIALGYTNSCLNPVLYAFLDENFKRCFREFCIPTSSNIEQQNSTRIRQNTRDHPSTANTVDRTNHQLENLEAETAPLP

Homeodomain-interacting protein kinase 2, sequence (Q9H2X6 whole entry, looked up): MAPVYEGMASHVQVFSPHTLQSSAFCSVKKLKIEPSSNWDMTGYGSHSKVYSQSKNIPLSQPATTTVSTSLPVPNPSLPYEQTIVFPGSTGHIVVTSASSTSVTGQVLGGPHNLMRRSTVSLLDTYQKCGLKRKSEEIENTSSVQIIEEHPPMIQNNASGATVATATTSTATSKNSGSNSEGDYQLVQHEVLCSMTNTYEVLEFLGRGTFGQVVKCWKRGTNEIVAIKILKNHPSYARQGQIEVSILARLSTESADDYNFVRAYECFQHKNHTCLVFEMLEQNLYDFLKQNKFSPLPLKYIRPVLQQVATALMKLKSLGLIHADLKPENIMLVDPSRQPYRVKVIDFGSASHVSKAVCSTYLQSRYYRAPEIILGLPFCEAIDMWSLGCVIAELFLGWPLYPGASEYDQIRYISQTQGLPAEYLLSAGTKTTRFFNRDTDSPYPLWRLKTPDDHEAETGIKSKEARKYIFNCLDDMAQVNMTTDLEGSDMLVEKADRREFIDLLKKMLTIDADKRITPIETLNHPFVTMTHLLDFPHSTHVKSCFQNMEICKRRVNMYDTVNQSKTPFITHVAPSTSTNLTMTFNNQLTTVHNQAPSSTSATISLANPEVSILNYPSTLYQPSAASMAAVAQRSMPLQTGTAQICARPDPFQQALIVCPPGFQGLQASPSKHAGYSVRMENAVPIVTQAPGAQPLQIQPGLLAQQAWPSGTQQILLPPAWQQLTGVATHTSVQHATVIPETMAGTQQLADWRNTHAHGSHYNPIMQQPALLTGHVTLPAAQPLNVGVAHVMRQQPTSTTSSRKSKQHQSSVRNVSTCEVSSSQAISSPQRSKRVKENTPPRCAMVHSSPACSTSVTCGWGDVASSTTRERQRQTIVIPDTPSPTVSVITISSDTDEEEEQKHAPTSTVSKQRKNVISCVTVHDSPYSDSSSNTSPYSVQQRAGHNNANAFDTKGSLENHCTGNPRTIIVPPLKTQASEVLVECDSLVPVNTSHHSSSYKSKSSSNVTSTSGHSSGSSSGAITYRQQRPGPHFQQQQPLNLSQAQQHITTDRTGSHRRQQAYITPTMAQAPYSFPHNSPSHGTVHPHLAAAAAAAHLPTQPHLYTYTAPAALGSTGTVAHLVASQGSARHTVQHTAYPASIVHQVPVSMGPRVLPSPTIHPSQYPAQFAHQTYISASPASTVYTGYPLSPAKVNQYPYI
Phosphatidylinositol 4-phosphate 5-kinase type-1 gamma (Homo sapiens), sequence (O60331 whole entry): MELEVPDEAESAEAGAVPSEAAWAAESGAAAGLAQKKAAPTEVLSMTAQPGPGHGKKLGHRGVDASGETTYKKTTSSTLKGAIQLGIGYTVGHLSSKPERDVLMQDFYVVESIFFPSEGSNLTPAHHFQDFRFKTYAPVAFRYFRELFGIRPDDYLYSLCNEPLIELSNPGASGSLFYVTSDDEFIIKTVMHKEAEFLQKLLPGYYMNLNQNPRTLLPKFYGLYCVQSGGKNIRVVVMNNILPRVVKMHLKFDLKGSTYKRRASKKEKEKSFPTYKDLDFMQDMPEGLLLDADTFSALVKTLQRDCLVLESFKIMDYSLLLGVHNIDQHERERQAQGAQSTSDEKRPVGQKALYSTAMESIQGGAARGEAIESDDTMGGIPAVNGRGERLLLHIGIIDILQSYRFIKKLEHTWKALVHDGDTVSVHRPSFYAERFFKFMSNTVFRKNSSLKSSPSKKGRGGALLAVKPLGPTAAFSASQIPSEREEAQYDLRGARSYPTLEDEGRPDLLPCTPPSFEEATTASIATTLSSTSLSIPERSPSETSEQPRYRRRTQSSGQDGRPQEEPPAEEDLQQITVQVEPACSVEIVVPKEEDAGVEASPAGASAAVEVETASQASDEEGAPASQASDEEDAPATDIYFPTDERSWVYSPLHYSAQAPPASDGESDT
Mitogen-activated protein kinase 14, sequence (Q16539 whole entry): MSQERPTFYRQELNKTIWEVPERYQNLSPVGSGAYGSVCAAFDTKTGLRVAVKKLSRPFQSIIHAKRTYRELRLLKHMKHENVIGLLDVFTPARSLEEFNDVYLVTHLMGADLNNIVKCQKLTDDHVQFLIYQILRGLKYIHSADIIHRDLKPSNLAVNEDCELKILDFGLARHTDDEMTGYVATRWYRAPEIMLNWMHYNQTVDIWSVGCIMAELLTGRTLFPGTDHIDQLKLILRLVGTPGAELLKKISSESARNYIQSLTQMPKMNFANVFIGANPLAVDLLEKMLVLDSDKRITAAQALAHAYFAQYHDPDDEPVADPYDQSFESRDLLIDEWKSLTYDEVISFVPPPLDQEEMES
Insulin receptor, sequence (P06213 28-758 limits assumed): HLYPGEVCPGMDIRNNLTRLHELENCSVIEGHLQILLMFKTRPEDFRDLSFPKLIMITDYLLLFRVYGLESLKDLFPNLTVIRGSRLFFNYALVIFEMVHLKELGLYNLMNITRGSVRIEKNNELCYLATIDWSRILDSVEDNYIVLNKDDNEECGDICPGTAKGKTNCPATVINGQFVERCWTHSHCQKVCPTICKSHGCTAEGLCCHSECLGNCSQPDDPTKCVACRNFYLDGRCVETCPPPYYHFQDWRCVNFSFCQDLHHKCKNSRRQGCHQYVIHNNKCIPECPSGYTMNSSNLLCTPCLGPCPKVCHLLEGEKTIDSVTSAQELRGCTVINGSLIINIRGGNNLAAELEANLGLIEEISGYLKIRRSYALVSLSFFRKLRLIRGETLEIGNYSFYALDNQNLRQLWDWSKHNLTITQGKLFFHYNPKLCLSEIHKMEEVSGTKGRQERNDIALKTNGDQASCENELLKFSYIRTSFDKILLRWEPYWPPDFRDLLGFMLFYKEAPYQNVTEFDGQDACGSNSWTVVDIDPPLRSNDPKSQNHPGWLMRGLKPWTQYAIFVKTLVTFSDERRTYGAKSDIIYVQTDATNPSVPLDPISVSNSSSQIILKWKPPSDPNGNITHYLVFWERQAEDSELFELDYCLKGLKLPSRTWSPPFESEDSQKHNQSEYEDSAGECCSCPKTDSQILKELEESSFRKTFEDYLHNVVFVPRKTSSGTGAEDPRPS
Insulin receptor, sequence (P06213 763-1382 limits assumed): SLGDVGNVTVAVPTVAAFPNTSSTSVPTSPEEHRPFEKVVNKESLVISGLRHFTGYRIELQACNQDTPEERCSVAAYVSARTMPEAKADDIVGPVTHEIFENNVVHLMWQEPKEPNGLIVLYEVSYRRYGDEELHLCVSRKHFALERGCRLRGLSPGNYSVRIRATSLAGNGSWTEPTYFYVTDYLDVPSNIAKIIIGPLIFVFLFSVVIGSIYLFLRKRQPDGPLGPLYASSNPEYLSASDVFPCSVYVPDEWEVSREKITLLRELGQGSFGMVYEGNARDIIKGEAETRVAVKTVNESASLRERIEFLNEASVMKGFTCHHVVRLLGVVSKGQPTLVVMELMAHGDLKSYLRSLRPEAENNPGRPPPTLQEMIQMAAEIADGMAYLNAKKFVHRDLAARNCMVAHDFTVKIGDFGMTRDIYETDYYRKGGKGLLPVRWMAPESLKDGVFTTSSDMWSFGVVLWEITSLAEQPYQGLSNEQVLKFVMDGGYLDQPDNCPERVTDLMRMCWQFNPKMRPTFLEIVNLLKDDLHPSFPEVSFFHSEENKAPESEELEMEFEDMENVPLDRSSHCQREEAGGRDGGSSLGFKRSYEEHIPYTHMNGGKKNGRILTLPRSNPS
Cyclin-dependent kinase 9, sequence (P50750 whole entry): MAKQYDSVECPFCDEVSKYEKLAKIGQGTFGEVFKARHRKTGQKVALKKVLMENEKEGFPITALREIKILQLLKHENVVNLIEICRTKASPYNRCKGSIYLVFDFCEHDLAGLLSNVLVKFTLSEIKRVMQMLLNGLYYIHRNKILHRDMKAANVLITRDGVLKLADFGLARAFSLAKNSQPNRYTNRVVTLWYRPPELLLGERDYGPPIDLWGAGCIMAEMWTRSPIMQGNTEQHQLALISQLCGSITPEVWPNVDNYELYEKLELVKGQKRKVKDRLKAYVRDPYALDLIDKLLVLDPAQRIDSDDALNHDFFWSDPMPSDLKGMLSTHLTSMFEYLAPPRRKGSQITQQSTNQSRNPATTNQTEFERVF

SMILES: CN(C)C/C=C/C(=O)Nc1ccc(C(=O)N2CCCC(Nc3ncc(Cl)c(-c4c[nH]c5ccccc45)n3)C2)cc1 (configuration not stated)
- % of control [1]: 76%

SMILES: O[C@H]1CC[C@H](Nc2ncc3nc(Nc4c(F)cc(F)cc4F)n([C@H]4CCOC4)c3n2)CC1
- % of control (Insulin receptor): 98%

SMILES: N#Cc1cccc(-c2c[nH]c3ncnc(N4CCOCC4)c23)c1
- % of control [2]: 100%

SMILES: CC(C)(O)[C@H](F)CN1Cc2cc(NC(=O)c3cnn4cccnc34)c(N3CCOCC3)cc2C1=O
- IC50 [3]: 966 nM

SMILES: C=CC(=O)Nc1cc(-n2c(=O)ccc3cnc4ccc(-c5ccc(NS(C)(=O)=O)cc5)cc4c32)ccc1C
- % of control ([4]; at 1 µM): 89%
- % of control ([4]; at 10 µM): 29%
- % of control ([5]; at 1 µM): 100%
- % of control ([5]; at 10 µM): 100%

- % of inhibition [6]: 4%
SMILES: Cc1ccc(-c2ccc3c(ccc4sc5c(c43)NC[C@@H](C)NC5=O)n2)cn1

SMILES: Cc1cc([C@@H](C)Nc2ccccc2C(=O)O)c2nc(N3CCOCC3)cc(=O)n2c1 [AZD-6482]
- % of control [7]: 61%

- % of inhibition [8]: -1.8%
SMILES: CC[C@@H]1[C@H](F)C(=O)N[C@@H]1COc1nccc2cc(C(N)=O)c(OC)cc12 [ZIMLOVISERTIB]

- pXC50 (Mu-type opioid receptor): < 4 M
SMILES: CCn1c(-c2nc3cc(C(=O)N4CCCC(N)C4)ccc3n2C)cc2ccccc21 (configuration not stated)
